Measurements from patent publication US10725049B2, “Methods of detecting and measuring glutamine and analogues thereof, and methods related thereto” (Victoria Link Limited, priority 2013, dated 2020).

Columns and labels:
BpsA [1] = target: T1, BpsA (Streptomyces lavendulae, UniProt Q1MWN4); experiment: BpsA end-point assay measuring L-glutamine in complex biological media (indigoidine re-solubilised in DMSO, A590); settings: for Spiked − unspiked (μM L-glutamine +/− 1 std dev): 300 μM spike
Procedure: For improved accuracy, reproducibility, and robustness, it is generally preferable to use an end-point assay over a kinetic assay. An end-point assay for BpsA was designed and carried out as follows. In these experiments, 40 μL indigoidine-producing reactions were run until all glutamine present was consumed, and then all the indigoidine was solubilised by adding 190 μL of the organosulfur solvent dimethyl sulfoxide (DMSO).
Indigoidine synthesis reactions were initiated by addition of 10 μL of each L-glutamine concentration standard in triplicate. […] The 96 plate was then mixed at 1000 rpm for 10 seconds and incubated at room temperature for 45 minutes to enable complete reaction of all L-glutamine present in each well. After this, 190 μL of DMSO heated to 50° C. was added to each well to solubilise the indigoidine. The 96 well plate was then incubated at room temperature with shaking at 2500 rpm for 10 minutes. […] This yielded a standard curve with an excellent straight line fit (FIG. 4).
For these experiments, standard samples (10 μL per well) were prepared in triplicate in ddH2O as per Example 4 at the following concentrations: 1000 μM, 800 μM, 600 μM, 400 μM, 200 μM, and 0 μM. Alongside these were aliquoted paired triplicate samples (10 μL per well) of the following media: adult bovine serum (purchased from Sigma-Aldrich), human urine, LB, DMEM, and ddH2O. For each medium, one of the two paired triplicate sets was spiked (amended) with 300 μM L-glutamine, while the other was left unspiked. Indigoidine synthesis was initiated by addition of 30 μL reaction mix (as described in Table 4) to each sample-containing well. The 96 well plate was then mixed at 1000 rpm for 10 seconds and incubated at room temperature for one hour, after which 180 μL of DMSO heated to 50° C. was added to each well. The plate was then shaken at 2500 rpm for 10 minutes to fully solubilise the indigoidine.
It was observed that the serum containing wells went immediately cloudy upon addition of DMSO, preventing meaningful A590 readings from being obtained for those samples. In all other cases, a single A590 reading for each well was recorded. For each sample, triplicate A590 values were averaged and this value was used to quantify glutamine levels based on the standard curve generated from the standard samples. With the exception of the ddH2O, it was unknown what the starting concentration of L-glutamine was in each medium being tested. However, the comparison of measured L-glutamine levels in spiked versus unspiked samples for each medium enabled assessment of the accuracy of the BpsA end-point assay in measuring L-glutamine concentrations in that medium.

BpsA [2] = target: T1, BpsA; experiment: Relative reaction rate of L-glutamine versus analogue with BpsA; type: biochemical; settings: L-glutamine faster than an analogue (e.g. L-glycyl glutamine)
Procedure: Without wishing to be bound by theory, it is believed that BpsA or a related enzyme can be used to measure both L-glutamine and a glutamine analogue (e.g., L-glycyl glutamine) in the same sample. Experiments have shown that L-glutamine reacts much faster with BpsA (˜100-1000 fold) than an analogue. Thus, it would be possible to incubate the sample for a short period (e.g., 2 minutes), remove the blue pigment, and measure the pigment levels to calculate L-glutamine levels. It would then be possible to wait for a further longer period (e.g., 8 hours), and measure the remaining blue pigment to calculate analogue levels (e.g., L-glycyl glutamine). It is expected that there would be little contamination of the glutamine-based product by the analogue-based product based on the enzymatic profile for BpsA.

T1 sequence (Q1MWN4 whole entry): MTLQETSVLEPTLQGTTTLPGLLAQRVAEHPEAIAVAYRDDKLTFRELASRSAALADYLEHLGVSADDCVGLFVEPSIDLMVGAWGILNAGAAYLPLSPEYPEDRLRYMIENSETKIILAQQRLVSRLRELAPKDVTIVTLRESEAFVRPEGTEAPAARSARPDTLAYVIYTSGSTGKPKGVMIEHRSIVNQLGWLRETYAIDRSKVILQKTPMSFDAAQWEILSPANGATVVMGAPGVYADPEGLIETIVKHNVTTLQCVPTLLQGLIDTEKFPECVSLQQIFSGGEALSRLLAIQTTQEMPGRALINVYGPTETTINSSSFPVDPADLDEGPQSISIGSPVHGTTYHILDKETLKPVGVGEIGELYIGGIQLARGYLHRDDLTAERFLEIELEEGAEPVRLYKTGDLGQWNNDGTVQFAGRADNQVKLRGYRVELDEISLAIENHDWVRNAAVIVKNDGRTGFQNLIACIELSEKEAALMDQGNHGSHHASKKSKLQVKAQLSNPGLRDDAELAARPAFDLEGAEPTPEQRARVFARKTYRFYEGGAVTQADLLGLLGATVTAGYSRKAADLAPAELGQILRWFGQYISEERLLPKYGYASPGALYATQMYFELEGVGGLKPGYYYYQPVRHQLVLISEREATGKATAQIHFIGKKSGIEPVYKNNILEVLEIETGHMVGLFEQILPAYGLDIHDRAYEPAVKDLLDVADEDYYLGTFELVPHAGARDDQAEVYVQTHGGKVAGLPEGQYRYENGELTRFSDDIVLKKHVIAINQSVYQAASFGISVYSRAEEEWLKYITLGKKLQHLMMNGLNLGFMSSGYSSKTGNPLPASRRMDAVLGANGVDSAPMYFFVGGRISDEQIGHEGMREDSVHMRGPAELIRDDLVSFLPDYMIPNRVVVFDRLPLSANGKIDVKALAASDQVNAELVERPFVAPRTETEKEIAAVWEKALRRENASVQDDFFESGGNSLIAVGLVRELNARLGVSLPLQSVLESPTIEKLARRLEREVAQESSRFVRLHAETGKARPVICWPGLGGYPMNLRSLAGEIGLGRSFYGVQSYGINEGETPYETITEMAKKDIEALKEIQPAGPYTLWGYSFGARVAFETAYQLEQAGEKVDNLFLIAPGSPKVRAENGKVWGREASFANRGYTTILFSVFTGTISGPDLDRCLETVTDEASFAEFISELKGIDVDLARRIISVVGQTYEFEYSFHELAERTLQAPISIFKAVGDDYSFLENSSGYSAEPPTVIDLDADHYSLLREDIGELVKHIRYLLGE

**Q.** With `NC(=O)CC[C@H](N)C(=O)O` [L-glutamine] as the compound, how does the “Spiked sample measurement (μM L-glutamine +/− 1 std dev)” value (BpsA [1]; DMEM spiked with 300 μM L-glutamine, standard curve in ddH2O) read?
**A.** 427.4 ± 4.6 µM

**Q.** And the “Unspiked sample measurement (μM L-glutamine +/− 1 std dev)” value (“Unspiked sample measurement” for short) (BpsA [1]; DMEM)?
**A.** 20.3 ± 2.7 µM

**Q.** What about the “Spiked − unspiked (μM L-glutamine +/− 1 std dev)” value (from here on “Spiked − unspiked”) (BpsA [1]; DMEM) of the same compound?
**A.** 407.0 ± 5.4 µM

**Q.** And the “Spiked sample measurement (μM L-glutamine +/− 1 std dev)” value (BpsA [1]; LB spiked with 300 μM L-glutamine, standard curve in ddH2O)?
**A.** 377.9 ± 14.1 µM

**Q.** And the “Unspiked sample measurement” value (BpsA [1]; LB)?
**A.** 49.6 ± 5.3 µM

**Q.** And the “Spiked − unspiked” value (BpsA [1]; LB)?
**A.** 328.1 ± 15.2 µM

**Q.** And the “Spiked sample measurement (μM L-glutamine +/− 1 std dev)” value (BpsA [1]; ddH2O spiked with 300 μM L-glutamine)?
**A.** 319.0 ± 5.4 µM

**Q.** And the “Spiked − unspiked” value (BpsA [1]; ddH2O)?
**A.** 319.0 ± 5.4 µM

**Q.** And the “Spiked sample measurement (μM L-glutamine +/− 1 std dev)” value (BpsA [1]; human urine spiked with 300 μM L-glutamine, standard curve in ddH2O)?
**A.** 295.8 ± 7.1 µM

**Q.** What about the “Unspiked sample measurement” value (BpsA [1]; human urine) of the same compound?
**A.** 71.4 ± 23.6 µM

**Q.** And the “Spiked − unspiked” value (BpsA [1]; human urine)?
**A.** 224.4 ± 24.9 µM

**Q.** What about the “Reaction rate with BpsA relative to an analogue” value (BpsA [2]) of the same compound?
**A.** 100-1000 fold
